Assay results published in patent publication US20240358735A1, “THERAPEUTIC COMPOSITIONS AND RELATED METHODS” (BOYCE THOMPSON INSTITUTE FOR PLANT RESEARCH, INC., priority 2021, published 2024).

Legend:
[1] = tested on: proteasome alpha and beta subunits; test: Thermal proteome profiling (TPP) of C. elegans lysates; type: binding; settings: compound 0.1 mM; for thermal stability of majority detected proteasome alpha and beta subunits (TPP): C. elegans lysate 1 mg/mL, 15 min room temperature, heated; for thermal stability of proteasome subunit PBS-1 (TPP): FIG. 36, C. elegans lysate
Text: (§1) To investigate the cellular interactors of MOGLs, two independent approaches were applied: thermal proteome profiling (TPP) and limited proteolysis-coupled mass spectrometry (LiP-MS), to uncover binding events upon compound treatment of C. elegans lysates using MOGLs of the sngl-class as an example. […] Moreover, there were multiple peptides from proteasome alpha subunits and one peptide from the beta unit that were differential, with absence-present contrast, in the LiP-MS experiment (FIG. 35). Results from these two assays which reflect distinct biophysical properties of protein-small molecule binding, strongly support interaction between sngl #1 and sngl #2 with the proteasome.
C. elegans lysate preparation and compound incubation. Synchronized pah-1(syb3596); tph-1(mg280) double knockout C. elegans were grown with ΔtnaA E. coli (JW3686-7) for two generations; growth conditions and harvesting procedures were as described in the ‘Nematode cultures’ section above. Worms were lysed by sonication with lysis buffer (25 mM Tris pH 7.5, 150 mM NaCl, 1.5 mM MgCl2.1 mM phenylmethylsulfonyl fluoride, 1× protease inhibitor cocktail (Roche), 1 mM sodium fluoride) for 5 min (3 s on/off pulse cycle at Amp 100). Protein concentration was determined by Bradford assay (MilliporeSigma) and diluted to 1 mg/mL by lysis buffer. To each aliquot of lysate was added compound (sngl #1, sngl #2, N-acetylserotonin, and solvent (ethanol) control (Mock)) to a final concentration of 0.1 mM and the mixtures were shaken for 15 min at room temperature.
Thermal proteome profiling (TPP) sample preparation. Methods were modified from published protocol (Franken, H., T. et al. Nature Protocols 10(10): 1567-1593). Lysate-compound mixture were aliquoted into 0.2-mL PCR tubes, heated at specified temperatures for 3 min using a Thermal Cycler (BioRad), centrifuged at 16,000 g at 4° C. for 5 min, and the supernatant were transferred into Eppendorf tubes. Four volumes of prechilled (−20° C.) acetone were added to each sample for precipitation of proteins overnight. Samples were centrifuged at 16,000 g at 4° C. for 20 min, washed once by methanol, and the resulting protein pellets were dissolved in urea buffer (50 mM ammonium bicarbonate, 2 M thiourea, 6 M urea). To digest proteins for mass spectrometry analysis, proteins were first reduced by dithiothreitol (final concentration 5 mM) for 30 min at room temperature, alkylated by iodoacetamide (final concentration 15 mM) for 30 min at room temperature in the dark, digested by LysC/Trypsin Mix (Promega) (enzyme/substrate=1/30, w/w) based on manufacturer's instructions. […] Peptides were measured by nanoHPLC-MS/MS by standard methods.

[2] = tested on: proteasome alpha and beta subunits; test: Limited proteolysis-coupled mass spectrometry (LiP-MS) of C. elegans lysates; type: binding; settings: FIG. 35; C. elegans lysate, compound 0.1 mM, proteinase K
Text: as §1
To obtain mechanistic insight into the binding of proteasome with sngl #1/sngl #2, LiP-MS data were analyzed to reveal peptides around sub-structures of proteins where the binding occurs.
C. elegans lysate preparation and compound incubation. Synchronized pah-1(syb3596); tph-1(mg280) double knockout C. elegans were grown with ΔtnaA E. coli (JW3686-7) for two generations; growth conditions and harvesting procedures were as described in the ‘Nematode cultures’ section above. […] Protein concentration was determined by Bradford assay (MilliporeSigma) and diluted to 1 mg/mL by lysis buffer. […]

## CC(=O)NCCc1c[nH]c2ccc(O[C@@H]3O[C@H](CO)[C@@H](O)[C@H](O)[C@H]3O)cc12 [sngl #1, N-(2-(5-(((2S,3R,4S,5S,6R)-3,4,5-trihydroxy-6-(hydroxymethyl)tetrahydro-2H-pyran-2-yl)oxy)-1H-indol-3-yl)ethyl)acetamide]
[1]
  thermal stability of majority detected proteasome alpha and beta subunits (TPP): significantly change the thermal stability
  thermal stability of proteasome subunit PBS-1 (TPP): affect the thermal stability
[2]
  PAS- or PBS-derived peptides detected in LiP-MS: indicative of specific binding to PAS and PBS

## CC(=O)NCCc1c[nH]c2ccc(O[C@@H]3O[C@H](CO)[C@@H](O)[C@H](OP(=O)(O)O)[C@H]3O)cc12 [sngl #2, (2S,3R,4S,5R,6R)-2-((3-(2-acetamidoethyl)-1H-indol-5-yl)oxy)-3,5-dihydroxy-6-(hydroxymethyl)tetrahydro-2H-pyran-4-yl dihydrogen phosphate]
[1]
  thermal stability of majority detected proteasome alpha and beta subunits (TPP): significantly change the thermal stability
  thermal stability of proteasome subunit PBS-1 (TPP): affect the thermal stability
[2]
  PAS- or PBS-derived peptides detected in LiP-MS: indicative of specific binding to PAS and PBS
